System: normal human lung fibroblasts
Assay: Ribosomal profiling: translational efficiency in TGFβ-treated fibroblasts
Assay type: cell-based
Settings: TGFβ-treated fibroblasts
Summary of the method: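 Genome-wide RPF and total RNA libraries (ARTseq, RNA-Seq) were made from lysates of cycloheximide-treated, PBS-washed cells. After trimming and human-genome mapping, per-gene coding-region counts were compared between RPF and RNA for translational efficiency. Genes scoring low in either fraction were dropped.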

CC(C=CC(=O)NO)=CC(C)C(=O)c1ccc(N(C)C)cc1 (stereo not drawn) [TSA, 7-[4-(dimethylamino)phenyl]-N-hydroxy-4,6-dimethyl-7-oxohepta-2,4-dienamide]
renormalizing the translational profile of DNASE1L1 (ENSG00000013563): − (− = <0.9) | renormalizing the translational profile of KITLG (ENSG00000049130): + (+ = 0.9 to 1.5) | renormalizing the translational profile of ADAMTS6 (ENSG00000049192): − (− = <0.9) | renormalizing the translational profile of LETMD1 (ENSG00000050426): − (− = <0.9) | renormalizing the translational profile of PLEKHA5 (ENSG00000052126): − (− = <0.9) | renormalizing the translational profile of EIF4B (ENSG00000063046): + (+ = 0.9 to 1.5) | renormalizing the translational profile of RPL18 (ENSG00000063177): − (− = <0.9) | renormalizing the translational profile of HIPK2 (ENSG00000064393): − (− = <0.9) | renormalizing the translational profile of ASPM (ENSG00000066279): + (+ = 0.9 to 1.5) | renormalizing the translational profile of RASSF1 (ENSG00000068028): − (− = <0.9) | renormalizing the translational profile of PABPC1 (ENSG00000070756): − (− = <0.9) | renormalizing the translational profile of RPL31 (ENSG00000071082): − (− = <0.9) | renormalizing the translational profile of PLD1 (ENSG00000075651): − (− = <0.9) | renormalizing the translational profile of EDN1 (ENSG00000078401): − (− = <0.9) | renormalizing the translational profile of AURKA (ENSG00000087586): ++ (++ = 1.5 to 2.0) | renormalizing the translational profile of EPB41L1 (ENSG00000088367): + (+ = 0.9 to 1.5) | renormalizing the translational profile of RPL6 (ENSG00000089009): − (− = <0.9) | renormalizing the translational profile of P2RX7 (ENSG00000089041): ++ (++ = 1.5 to 2.0) | renormalizing the translational profile of KDM2B (ENSG00000089094): − (− = <0.9) | renormalizing the translational profile of RPLP0 (ENSG00000089157): − (− = <0.9) | renormalizing the translational profile of IGBP1 (ENSG00000089289): − (− = <0.9) | renormalizing the translational profile of IRAK3 (ENSG00000090376): + (+ = 0.9 to 1.5) | renormalizing the translational profile of PABPC4 (ENSG00000090621): − (− = <0.9) | renormalizing the translational profile of FMO2 (ENSG00000094963): + (+ = 0.9 to 1.5) | renormalizing the translational profile of ACOT7 (ENSG00000097021): − (− = <0.9) | renormalizing the translational profile of ATP5D (ENSG00000099624): − (− = <0.9) | renormalizing the translational profile of LGALS1 (ENSG00000100097): − (− = <0.9) | renormalizing the translational profile of EIF3L (ENSG00000100129): − (− = <0.9) | renormalizing the translational profile of RPL3 (ENSG00000100316): − (− = <0.9) | renormalizing the translational profile of CEP192 (ENSG00000101639): − (− = <0.9) | renormalizing the translational profile of AMMECR1 (ENSG00000101935): − (− = <0.9) | renormalizing the translational profile of PLP2 (ENSG00000102007): − (− = <0.9) | renormalizing the translational profile of EIF3E (ENSG00000104408): − (− = <0.9) | renormalizing the translational profile of EEF1D (ENSG00000104529): − (− = <0.9) | renormalizing the translational profile of C19orf53 (ENSG00000104979): − (− = <0.9) | renormalizing the translational profile of GLTSCR2 (ENSG00000105373): + (+ = 0.9 to 1.5) | renormalizing the translational profile of RAB3D (ENSG00000105514): ++ (++ = 1.5 to 2.0) | renormalizing the translational profile of RPL18A (ENSG00000105640): − (− = <0.9) | renormalizing the translational profile of COMP (ENSG00000105664): − (− = <0.9) | renormalizing the translational profile of GLCCI1 (ENSG00000106415): + (+ = 0.9 to 1.5) | renormalizing the translational profile of CORO2A (ENSG00000106789): − (− = <0.9) | renormalizing the translational profile of GDF10 (ENSG00000107623): + (+ = 0.9 to 1.5) | renormalizing the translational profile of RPL28 (ENSG00000108107): − (− = <0.9) | renormalizing the translational profile of RPL19 (ENSG00000108298): − (− = <0.9) | renormalizing the translational profile of RASD1 (ENSG00000108551): − (− = <0.9) | renormalizing the translational profile of NAT9 (ENSG00000109065): − (− = <0.9) | renormalizing the translational profile of RPL34 (ENSG00000109475): − (− = <0.9) | renormalizing the translational profile of CRYAB (ENSG00000109846): − (− = <0.9) | renormalizing the translational profile of GAPDH (ENSG00000111640): − (− = <0.9) | renormalizing the translational profile of C12orf57 (ENSG00000111678): + (+ = 0.9 to 1.5) | renormalizing the translational profile of MDFI (ENSG00000112559): − (− = <0.9) | renormalizing the translational profile of HBEGF (ENSG00000113070): − (− = <0.9) | renormalizing the translational profile of RPL24 (ENSG00000114391): − (− = <0.9) | renormalizing the translational profile of EEF1B2 (ENSG00000114942): − (− = <0.9) | renormalizing the translational profile of IFIH1 (ENSG00000115267): − (− = <0.9) | renormalizing the translational profile of DPH5 (ENSG00000117543): − (− = <0.9) | renormalizing the translational profile of PPL (ENSG00000118898): − (− = <0.9) | renormalizing the translational profile of PLEKHG1 (ENSG00000120278): − (− = <0.9) | renormalizing the translational profile of LIAS (ENSG00000121897): − (− = <0.9) | renormalizing the translational profile of GPSM2 (ENSG00000121957): ++ (++ = 1.5 to 2.0) | renormalizing the translational profile of RPL21 (ENSG00000122026): − (− = <0.9) | renormalizing the translational profile of RPL5 (ENSG00000122406): − (− = <0.9) | renormalizing the translational profile of INHBA (ENSG00000122641): − (− = <0.9) | renormalizing the translational profile of CIT (ENSG00000122966): +++ (+++ = >2.0) | renormalizing the translational profile of RPL23 (ENSG00000125691): − (− = <0.9) | renormalizing the translational profile of LAMP5 (ENSG00000125869): − (− = <0.9) | renormalizing the translational profile of NECAB3 (ENSG00000125967): − (− = <0.9) | renormalizing the translational profile of COX7C (ENSG00000127184): − (− = <0.9) | renormalizing the translational profile of LIF (ENSG00000128342): − (− = <0.9) | renormalizing the translational profile of MTUS1 (ENSG00000129422): − (− = <0.9) | renormalizing the translational profile of ARHGEF6 (ENSG00000129675): − (− = <0.9) | renormalizing the translational profile of RPL36 (ENSG00000130255): − (− = <0.9) | renormalizing the translational profile of GDF15 (ENSG00000130513): − (− = <0.9) | renormalizing the translational profile of ASS1 (ENSG00000130707): − (− = <0.9) | renormalizing the translational profile of EIF2S3 (ENSG00000130741): − (− = <0.9) | renormalizing the translational profile of RPL27 (ENSG00000131469): − (− = <0.9) | renormalizing the translational profile of MATN3 (ENSG00000132031): − (− = <0.9) | renormalizing the translational profile of PPARG (ENSG00000132170): + (+ = 0.9 to 1.5) | renormalizing the translational profile of KDM6B (ENSG00000132510): − (− = <0.9) | renormalizing the translational profile of RARRES3 (ENSG00000133321): − (− = <0.9) | renormalizing the translational profile of BIVM (ENSG00000134897): − (− = <0.9) | renormalizing the translational profile of ATP5G2 (ENSG00000135390): − (− = <0.9) | renormalizing the translational profile of KRT7 (ENSG00000135480): − (− = <0.9) | renormalizing the translational profile of HNRNPA1 (ENSG00000135486): − (− = <0.9) | renormalizing the translational profile of IL6 (ENSG00000136244): − (− = <0.9) | renormalizing the translational profile of RPL35 (ENSG00000136942): − (− = <0.9) | renormalizing the translational profile of NOV (ENSG00000136999): + (+ = 0.9 to 1.5) | renormalizing the translational profile of IER3 (ENSG00000137331): − (− = <0.9) | renormalizing the translational profile of DDX60 (ENSG00000137628): − (− = <0.9) | renormalizing the translational profile of RPLP1 (ENSG00000137818): − (− = <0.9) | renormalizing the translational profile of PAQR5 (ENSG00000137819): − (− = <0.9) | renormalizing the translational profile of AOX1 (ENSG00000138356): ++ (++ = 1.5 to 2.0) | renormalizing the translational profile of FGF5 (ENSG00000138675): − (− = <0.9) | renormalizing the translational profile of PDE5A (ENSG00000138735): − (− = <0.9) | renormalizing the translational profile of GAS2L3 (ENSG00000139354): + (+ = 0.9 to 1.5) | renormalizing the translational profile of DIAPH3 (ENSG00000139734): − (− = <0.9) | renormalizing the translational profile of MYO19 (ENSG00000141140): − (− = <0.9) | renormalizing the translational profile of RPL13A (ENSG00000142541): − (− = <0.9) | renormalizing the translational profile of RPL11 (ENSG00000142676): − (− = <0.9) | renormalizing the translational profile of ACTA1 (ENSG00000143632): − (− = <0.9) | renormalizing the translational profile of PLEKHA6 (ENSG00000143850): + (+ = 0.9 to 1.5) | renormalizing the translational profile of RPL32 (ENSG00000144713): − (− = <0.9) | renormalizing the translational profile of RPL37 (ENSG00000145592): − (− = <0.9) | renormalizing the translational profile of BTF3 (ENSG00000145741): − (− = <0.9) | renormalizing the translational profile of HIGD2A (ENSG00000146066): − (− = <0.9) | renormalizing the translational profile of CREB5 (ENSG00000146592): − (− = <0.9) | renormalizing the translational profile of DENND2A (ENSG00000146966): − (− = <0.9) | renormalizing the translational profile of RPL10 (ENSG00000147403): + (+ = 0.9 to 1.5) | renormalizing the translational profile of EIF3H (ENSG00000147677): − (− = <0.9) | renormalizing the translational profile of RPL7A (ENSG00000148303): − (− = <0.9) | renormalizing the translational profile of EIF3M (ENSG00000149100): − (− = <0.9) | renormalizing the translational profile of FAU (ENSG00000149806): − (− = <0.9) | renormalizing the translational profile of CCDC102B (ENSG00000150636): + (+ = 0.9 to 1.5) | renormalizing the translational profile of FRMD4A (ENSG00000151474): + (+ = 0.9 to 1.5) | renormalizing the translational profile of HOMER1 (ENSG00000152413): − (− = <0.9) | renormalizing the translational profile of PLEKHH2 (ENSG00000152527): − (− = <0.9) | renormalizing the translational profile of ANKH (ENSG00000154122): − (− = <0.9) | renormalizing the translational profile of ABCA6 (ENSG00000154262): − (− = <0.9) | renormalizing the translational profile of OBSCN (ENSG00000154358): +++ (+++ = >2.0) | renormalizing the translational profile of ADAMTS5 (ENSG00000154736): − (− = <0.9) | renormalizing the translational profile of OXA1L (ENSG00000155463): − (− = <0.9) | renormalizing the translational profile of C9orf85 (ENSG00000155621): − (− = <0.9) | renormalizing the translational profile of RPL30 (ENSG00000156482): − (− = <0.9) | renormalizing the translational profile of EEF1A1 (ENSG00000156508): + (+ = 0.9 to 1.5) | renormalizing the translational profile of NRG1 (ENSG00000157168): − (− = <0.9) | renormalizing the translational profile of ADAMTS4 (ENSG00000158859): − (− = <0.9) | renormalizing the translational profile of RPL8 (ENSG00000161016): − (− = <0.9) | renormalizing the translational profile of RPL26 (ENSG00000161970): − (− = <0.9) | renormalizing the translational profile of RPL29 (ENSG00000162244): − (− = <0.9) | renormalizing the translational profile of CAMK2N1 (ENSG00000162545): − (− = <0.9) | renormalizing the translational profile of IGFBP7 (ENSG00000163453): − (− = <0.9) | renormalizing the translational profile of RPL22L1 (ENSG00000163584): − (− = <0.9)
